Where two headings read alike, the source gives them in different places.
Biological target: T1, cPLA2 (Homo sapiens, UniProt P47712)
T1 sequence (P47712 1-749): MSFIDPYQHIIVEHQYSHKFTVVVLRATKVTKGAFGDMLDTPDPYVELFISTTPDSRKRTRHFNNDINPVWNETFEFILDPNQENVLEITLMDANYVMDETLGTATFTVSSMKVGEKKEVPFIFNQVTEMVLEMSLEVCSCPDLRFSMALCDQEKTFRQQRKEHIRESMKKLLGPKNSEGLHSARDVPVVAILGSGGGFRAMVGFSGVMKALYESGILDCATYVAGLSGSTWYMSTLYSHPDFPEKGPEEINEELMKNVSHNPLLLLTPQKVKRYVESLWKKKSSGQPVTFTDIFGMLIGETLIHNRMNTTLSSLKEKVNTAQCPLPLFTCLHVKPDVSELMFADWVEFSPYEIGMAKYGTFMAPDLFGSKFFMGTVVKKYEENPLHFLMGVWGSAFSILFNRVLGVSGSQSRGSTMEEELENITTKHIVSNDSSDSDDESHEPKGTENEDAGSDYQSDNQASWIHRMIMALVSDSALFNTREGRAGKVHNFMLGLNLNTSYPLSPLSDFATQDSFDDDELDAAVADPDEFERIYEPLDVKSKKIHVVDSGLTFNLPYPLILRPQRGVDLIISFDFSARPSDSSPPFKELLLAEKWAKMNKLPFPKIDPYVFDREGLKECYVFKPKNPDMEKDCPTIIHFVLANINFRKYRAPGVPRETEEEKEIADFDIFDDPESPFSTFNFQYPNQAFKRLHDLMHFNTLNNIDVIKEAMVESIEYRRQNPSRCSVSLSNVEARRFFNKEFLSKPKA
Assay: Coumarin Assay (cPLA2 inhibition)
Format: biochemical
Details: for inhibition at 2.5 µM: CONCENTRATION 2.5 micromolar; for inhibition at 4.4 µM: CONCENTRATION 4.4 micromolar
In short: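 Percent inhibition at the stated concentration, from the rate of 460 nm emission rise (360 nm excitation) per minute. Reaction started by adding 4 μg enzyme to compound and 60 μM 7-hydroxycoumarinyl 6-heptenoate in Hepes buffer pH 7.5 with 1 mM EDTA.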

[1] = CONCENTRATION 50 micromolar, read-out: PERCENT INHIBITION @

O=C(O)c1ccc(OCCc2c(COCc3ccccn3)n(C(c3ccccc3)c3ccccc3)c3ccc(Cl)cc23)cc1 [Example 158, 4-(2-{1-benzhydryl-5-chloro-2-[(2-pyridinylmethoxy)methyl]-1H-indol-3-yl}ethoxy)benzoic acid]
inhibition at 1.7 µM (Conc 1.7 uM): 50%

O=C(O)c1ccc(OCCc2c(COCc3c(F)cccc3F)n(C(c3ccccc3)c3ccccc3)c3ccc(Cl)cc23)cc1 [Example 156, 4-[2-(1-benzhydryl-5-chloro-2-{[(2,6-difluorobenzyl)oxy]methyl}-1H-indol-3-yl)ethoxy]benzoic acid]
inhibition at 1 µM (Conc 1 uM, read-out: % Inhibition): 50%

COc1cc(C(=O)NS(=O)(=O)c2nnc(NC(C)=O)s2)ccc1Cc1cn(C(c2ccccc2)c2ccccc2)c2ccc(NC(=O)OC3CCCC3)cc12 [Example 34, cyclopentyl N-(3-{4-[({[5-(acetylamino)-1,3,4-thiadiazol-2-yl]sulfonyl}amino)carbonyl]-2-methoxybenzyl}-1-benzhydryl-1H-indol-5-yl)carbamate]
inhibition at 2 µM (CONCENTRATION 2 micromolar, read-out: PERCENT INHIBITION @): 50% | inhibition at 2.5 µM (read-out: PERCENT INHIBITION @): 57%

Cc1c(CCS(=O)(=O)c2ccc(C(=O)O)cc2)c2cc(F)ccc2n1C(c1ccccc1)c1ccccc1 [Example 139, 4-{[2-(1-benzhydryl-5-fluoro-2-methyl-1H-indol-3-yl)ethyl]sulfonyl}benzoic acid]
inhibition at 1.6 µM (Conc 1.6 uM, read-out: % Inhibition): 50%

O=C(O)C(=O)c1cn(Cc2ccc(C(F)(F)F)cc2C(F)(F)F)c2ccc(OCc3ccccc3)cc12 [Example 70, 2-{5-(benzyloxy)-1-[2,4-bis(trifluoromethyl)benzyl]-1H-indol3-yl}-2-oxoacetic acid]
PERCENT INHIBITION @ (CONCENTRATION 50 micromolar): 40% | inhibition at 50 µM [1]: 39%

COc1cc(C(=O)O)ccc1Cc1cn(C(c2ccccc2)c2ccc(N)cc2)c2cc(Cl)ccc12 (centres unmarked) [Example 132, ′4-({1-[(4-aminophenyl)(phenyl)methyl]-6-chloro-1H-indol-3-yl}methyl)-3-methoxybenzoic acid]
PERCENT INHIBITION @ (CONCENTRATION 0.4 micromolar): 50%

O=C(Nc1cccc(C(=O)O)c1)C(=O)c1cn(Cc2ccccc2S(=O)(=O)Cc2ccccc2)c2ccccc12 [Example 64, 3-[(2-{1-[2-(benzylsulfonyl)benzyl]-1H-indol-3-yl}-2-oxoacetyl)amino]benzoic acid]
inhibition at 32 µM (CONCENTRATION 32 micromolar, read-out: PERCENT INHIBITION @): 50% | inhibition at 37 µM (CONCENTRATION 37 micromolar, read-out: PERCENT INHIBITION @): 50%

COc1cc(C(=O)NS(=O)(=O)c2nn(C)c(=NC(C)=O)s2)ccc1Cc1cn(C(c2ccccc2)c2ccccc2)c2ccc(NC(=O)OC3CCCC3)cc12 [Example 29, cyclopentyl N-(3-{4-[({[5-(acetylimino)-4-methyl-4,5-dihydro1,3,4-thiadiazol-2-yl]sulfonyl}amino)carbonyl]-2-methoxybenzyl}-1-benzhydryl-1H-indol-5-yl)carbamate]
inhibition at 2.5 µM (read-out: PERCENT INHIBITION @): 50% | inhibition at 3.4 µM (CONCENTRATION 3.4 micromolar, read-out: PERCENT INHIBITION @): 50% | inhibition at 6 µM (CONCENTRATION 6 micromolar, read-out: PERCENT INHIBITION @): 87%

COc1cc(C(=O)O)ccc1Cc1cn(Cc2ccc3ccccc3c2)c2ccc(NC(=O)OC3CCCC3)cc12 [Example 4, 4-{[5-{[(cyclopentyloxy)carbonyl]amino}-1-(2-naphthylmethyl)-1H-indol-3-yl]methyl}3-methoxybenzoic acid]
inhibition at 5 µM (CONCENTRATION 5 micromolar, read-out: PERCENT INHIBITION @): 50% | inhibition at 11 µM (CONCENTRATION 11 micromolar, read-out: PERCENT INHIBITION @): 50%

COc1cc(C(=O)NS(=O)(=O)c2sc(C)nc2C)ccc1Cc1cn(C(c2ccccc2)c2ccccc2)c2ccc(NC(=O)OC3CCCC3)cc12 [Example 32, cyclopentyl N-{1-benzhydryl-3-[4-({[(2,4-dimethyl-1,3-thiazol-5-yl)sulfonyl]amino}carbonyl)-2-methoxybenzyl]-1H-indol-5-yl}carbamate]
inhibition at 4 µM (CONCENTRATION 4 micromolar, read-out: PERCENT INHIBITION @): 50% | inhibition at 4.4 µM (read-out: PERCENT INHIBITION @): 50%

Cc1c(CCS(=O)(=O)c2ccc(C(=O)O)cc2)c2ccccc2n1C(c1ccccc1)c1ccccc1 [Example 143, 4-{[2-(1-benzhydryl-2-methyl-1H-indol-3-yl)ethyl]sulfonyl}benzoic acid]
inhibition at 3 µM (Conc 3 uM, read-out: % Inhibition): 50%

3-{4-[2-(1-benzhydryl-5-chloro-2-{[(2,6-difluorobenzyl)oxy]methyl}-1H-indol-3-yl)ethoxy]phenyl}propanoic acid [Example 166]
% Inhibition (Conc 0.31 uM): 58%

O=C(O)C1CC1Cc1cn(C(c2ccccc2)c2ccccc2)c2cc(Cl)c(F)cc12 (centres unmarked) [Example 127, 2-[(1-benzhydryl-6-chloro-5-fluoro-1H-indol-3-yl)methyl]cyclopropanecarboxylic acid]
inhibition at 1.1 µM (CONCENTRATION 1.1 micromolar, read-out: PERCENT INHIBITION @): 50%

O=C(O)COc1ccc(Cc2cn(C(c3ccccc3)c3ccccc3)c3cc(Cl)ccc23)c(Cl)c1 [Example 120, 2-{4-[(1-benzhydryl-6-chloro-1H-indol-3-yl)methyl]-3-chlorophenoxy}acetic acid]
inhibition at 1 µM (CONCENTRATION 1 micromolar, read-out: PERCENT INHIBITION @): 50%

COc1cc(C(=O)O)ccc1Cc1cn(CC2CC2)c2ccc(NC(=O)OC3CCCC3)cc12 [Example 5, 4-{[5-{[(cyclopentyloxy)carbonyl]aminol}-1-(cyclopropylmethyl)-1H-indol-3-yl]methyl}-3-methoxybenzoic acid]
PERCENT INHIBITION @ (CONCENTRATION 100 micromolar): 41% | PERCENT INHIBITION @ (CONCENTRATION 120 micromolar): 50%

COc1cc(C(=O)NS(=O)(=O)c2c(C)noc2C)ccc1Cc1cn(C(c2ccccc2)c2ccccc2)c2ccc(NC(=O)OC3CCCC3)cc12 [Example 33, cyclopentyl N-{1-benzhydryl-3-[4-({[(3,5-dimethyl-4-isoxazolyl)sulfonyl]amino}carbonyl)-2-methoxybenzyl]-1H-indol-5-yl}carbamate]
inhibition at 4.4 µM (read-out: PERCENT INHIBITION @): 50% | inhibition at 4.9 µM (CONCENTRATION 4.9 micromolar, read-out: PERCENT INHIBITION @): 50%

COc1cc(C(=O)O)ccc1Cc1cn(C(c2ccccc2)c2ccccc2N2CCOCC2)c2cc(Cl)ccc12 (centres unmarked) [Example 135, ′4-({6-chloro-1-[(2-morpholinophenyl)(phenyl)methyl]-1H-indol-3-yl}methyl)-3-methoxybenzoic acid]
PERCENT INHIBITION @ (CONCENTRATION 0.7 micromolar): 50%

Cc1c(C(=O)O)c2cc(OCc3ccccc3)ccc2n1Cc1ccc2ccccc2c1 [Example 109, 5-(benzyloxy)-2-methyl-1-(2-naphthylmethyl)-1H-indole-3-carboxylic acid]
PERCENT INHIBITION @ (CONCENTRATION 50 micromolar): 25% | inhibition at 50 µM [1]: 28%

COc1ncc(C(c2ccccc2)n2cc(Cc3ccc(C(=O)O)cc3OC)c3ccc(Cl)cc32)c(OC)n1 (centres unmarked) [Example 136, 4-({6-chloro-1-[(2,4-dimethoxy-5-pyrimidinyl)(phenyl)methyl]-1H-indol-3-yl}methyl)-3-methoxybenzoic acid]
inhibition at 0.4 µM (CONCENTRATION 0.4 micromolar, read-out: PERCENT INHIBITION @): 50%

CCCn1cc(Cc2ccc(C(=O)O)cc2OC)c2cc(NC(=O)OC3CCCC3)ccc21 [Example 1, 4-[(5-{[(cyclopentyloxy)carbonyl]amino}-1-propyl-1H-indol-3-yl)methyl]-3-methoxybenzoic acid]
inhibition at 50 µM [1]: 7% | inhibition at 100 µM (CONCENTRATION 100 micromolar, read-out: PERCENT INHIBITION @): 18% | inhibition at 170 µM (CONCENTRATION 170 micromolar, read-out: PERCENT INHIBITION @): 50%

COc1cc(C(=O)O)ccc1Cc1cn(C(c2ccccc2)c2ccccc2)c2ccc(S(C)(=O)=O)cc12 [Example 18, 4-{[l-benzhydryl-5-(methylsulfonyl)-1H-indol-3-yl]methyl}-3-methoxybenzoic acid]
PERCENT INHIBITION @ (CONCENTRATION 1.2 micromolar): 50% | PERCENT INHIBITION @ (CONCENTRATION 1.3 micromolar): 50% | PERCENT INHIBITION @ (CONCENTRATION 1.9 micromolar): 50% | PERCENT INHIBITION @ (CONCENTRATION 2 micromolar): 50%

Cc1c(CCSc2ccc(C(=O)O)cc2)c2cc(Cl)ccc2n1C(c1ccccc1)c1ccccc1 [Example 146, 4-{[2-(1-benzhydryl-5-chloro-2-methyl-1H-indol-3-yl)ethyl]sulfany}benzoic acid]
% Inhibition (Conc 1.6 uM): 50%

Cc1c(CCS(=O)(=O)c2ccc(C(=O)O)cc2)c2c(Cl)c(Cl)ccc2n1C(c1ccccc1)c1ccccc1 [Example 141, 4-{[2-(1-benzhydryl-4,5-dichloro-2-methyl-1H-indol-3-yl)ethyl]sulfonyl}benzoic acid]
inhibition at 1.4 µM (Conc 1.4 uM, read-out: % Inhibition): 50%

Source: patent US6500853B1, “Inhibitors of phospholipase enzymes” (Genetics Institute, LLC, priority 1998, dated 2002)
